The text below walks through data of patent US7592345B2, “Piperazine and [1,4]diazepan derivatives as NK antagonists” (Hoffmann-La Roche Inc., priority 2007, dated 2009).

For assay [1], the target named is T1, recombinant human NK3 receptor (Homo sapiens, UniProt P29371).
T1 construct: expressed in transfected cells; host or cells: HEK293 cells (transient expression), membranes
T1 sequence (P29371 1-465): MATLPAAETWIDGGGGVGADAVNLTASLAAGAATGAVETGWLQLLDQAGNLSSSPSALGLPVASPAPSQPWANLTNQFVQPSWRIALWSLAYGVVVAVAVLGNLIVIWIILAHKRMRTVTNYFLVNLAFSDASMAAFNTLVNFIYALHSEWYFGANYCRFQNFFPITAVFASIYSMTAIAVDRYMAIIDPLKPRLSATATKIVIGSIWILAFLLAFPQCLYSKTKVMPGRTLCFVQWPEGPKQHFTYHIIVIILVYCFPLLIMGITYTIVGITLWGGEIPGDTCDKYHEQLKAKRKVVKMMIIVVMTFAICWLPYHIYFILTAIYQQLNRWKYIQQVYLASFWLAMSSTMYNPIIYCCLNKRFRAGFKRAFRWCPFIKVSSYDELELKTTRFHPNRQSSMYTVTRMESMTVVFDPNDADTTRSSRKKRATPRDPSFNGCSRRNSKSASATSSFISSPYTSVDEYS
Kind of assay: [3H]SR142801 competition binding assay. To be noted: [3H]SR142801, membranes from HEK293 cells transiently expressing recombinant human NK3 receptor; read-out: hNK3 Ki. An outline of the steps:
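Membranes from HEK293 cells transiently expressing human NK3 were incubated 75 min at RT with [3H]SR142801 at its KD and inhibitor (0.0003-10 μM) in Tris-HCl pH 7.4/MnCl2/phosphoramidon/BSA. Nonspecific binding used 10 μM SB222200. Ki from Hill-fitted IC50 via Cheng-Prusoff, duplicate determinations.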

For assay [2] the following is noted: phase II trial; cited from earlier work.

A word on the Ki: it is a measure of affinity in units of concentration, obtained from inhibition or displacement. Regarding `CN(Cc1cccc(C(F)(F)F)c1)C(=O)C(C)(CCN1CCN(S(C)(=O)=O)CC1)c1ccc(Cl)c(Cl)c1` (centres unmarked) [Example 127, 2-(3,4-Dichloro-phenyl)-4-(4-methanesulfonyl-piperazin-1-yl)-2,N-dimethyl-N-(3-trifluoromethyl-benzyl)-butyramide], the Ki in assay [1] is 78.4 nM.

On to `CC(CCN1CCN(S(C)(=O)=O)CC1)(C(=O)N[C@@H](CO)c1ccc(Cl)cc1)c1ccc(Cl)c(Cl)c1` (stereo partly drawn) [Example 130, N-[(R)-1-(4-Chloro-phenyl)-2-hydroxy-ethyl]-2-(3,4-dichloro-phenyl)-4-(4-methanesulfonyl-piperazin-1-yl)-2-methyl-butyramide], for which the inhibition constant (Ki) in assay [1] came out at 39.9 nM.

Regarding `CC(CCN1CCN(S(C)(=O)=O)CC1)(C(=O)N[C@H](CO)c1ccc(Cl)cc1)c1ccc(Cl)c(Cl)c1` (stereo partly drawn) [Example 131, N-[(S)-1-(4-Chloro-phenyl)-2-hydroxy-ethyl]-2-(3,4-dichloro-phenyl)-4-(4-methanesulfonyl-piperazin-1-yl)-2-methyl-butyramide], the Ki in assay [1] stood at 186 nM.

On to `CC(CCN1CCN(S(C)(=O)=O)CC1)(C(=O)N[C@@H](CO)c1ccc(F)cc1)c1ccc(Cl)c(Cl)c1` (stereo partly drawn) [Example 132, 2-(3,4-Dichloro-phenyl)-N-[(R)-1-(4-fluoro-phenyl)-2-hydroxy-ethyl]-4-(4-methanesulfonyl-piperazin-1-yl)-2-methyl-butyramide], for which the Ki in assay [1] came to 146 nM.

Consider `CC(CCN1CCN(S(C)(=O)=O)CC1)(C(=O)N[C@H](CO)c1ccc(F)cc1)c1ccc(Cl)c(Cl)c1` (stereo partly drawn) [Example 133, 2-(3,4-Dichloro-phenyl)-N-[(S)-1-(4-fluoro-phenyl)-2-hydroxy-ethyl]-4-(4-methanesulfonyl-piperazin-1-yl)-2-methyl-butyramide], for which the inhibition constant Ki in assay [1] amounted to 397 nM.

`CC(NC(=O)C(C)(CCN1CCN(S(C)(=O)=O)CC1)c1ccc(Cl)c(Cl)c1)c1ccc(F)cc1` (centres unmarked) [Example 134, 2-(3,4-Dichloro-phenyl)-N-[1-(4-fluoro-phenyl)-ethyl]-4-(4-methanesulfonyl-piperazin-1-yl)-2-methyl-butyramide]: the Ki in assay [1] was 229 nM.

Regarding `CC(CCN1CCN(S(C)(=O)=O)CC1)(C(=O)NC(c1ccc(F)cc1)C(F)(F)F)c1ccc(Cl)c(Cl)c1` (centres unmarked) [Example 135, 2-(3,4-Dichloro-phenyl)-4-(4-methanesulfonyl-piperazin-1-yl)-2-methyl-N-[2,2,2-trifluoro-1-(4-fluoro-phenyl)-ethyl]-butyramide], in assay [1], the Ki was 196 nM.

On to `CC(CCN1CCN2C(CCS2(=O)=O)C1)(C(=O)N[C@@H](CO)c1ccc(Cl)cc1)c1ccc(Cl)c(Cl)c1` (stereo partly drawn) [Example 136, N-[(R)-1-(4-Chloro-phenyl)-2-hydroxy-ethyl]-2-(3,4-dichloro-phenyl)-4-(1,1-dioxo-hexahydro-1λ^6-thia-5,7a-diaza-inden-5-yl)-2-methyl-butyramide], for which, in assay [1], the inhibition constant Ki amounted to 15.4 nM.

Regarding `CC(CCN1CCN2C(CCS2(=O)=O)C1)(C(=O)N[C@@H](CO)c1ccc(F)cc1)c1ccc(Cl)c(Cl)c1` (stereo partly drawn) [Example 137, 2-(3,4-Dichloro-phenyl)-4-(1,1-dioxo-hexahydro-1λ^6-thia-5,7a-diaza-inden-5-yl)-N-[(R)-1-(4-fluoro-phenyl)-2-hydroxy-ethyl]-2-methyl-butyramide], in assay [1], the inhibitory constant (Ki) was found to be 30.5 nM.

For `CC(=O)N(C)C1(c2ccccc2)CCN(CCC[C@]2(c3ccc(Cl)c(Cl)c3)CCCN(C(=O)c3ccccc3)C2)CC1` [SR 142,801, Osanetant], in assay [2], the “activity in the treatment of negative symptoms” value is “inactive” and the “activity on positive symptoms of schizophrenia” value was “active”.
